pIC50: −log10 of the molar value.
Target: isolated activated GpIIb/IIIa receptor (Homo sapiens, UniProt P05106+P08514)
Assay: GpIIb/IIIa-Fibrinogen-ELISA (inhibition of fibrinogen binding to coated receptor)
Details: inhibition of fibrinogen-GpIIb/IIIa interaction, O.D. at 405 nm
Description: Microtitre plates are coated overnight with 2 μg/ml isolated activated GpIIb/IIIa receptor. After removing the unbound receptor by several washing steps, the surface of the plates is blocked with 1% casein and washed again. The test substance is added in the required concentrations and the plates are incubated for 10 minutes while shaking in a linear shaker. The natural ligand of the gpIIb/IIIa receptor, fibrinogen, is added. After 1 hour of incubation the unbound fibrinogen is removed by several washing steps and bound fibrinogen is detected by a peroxidase-conjugated anti-fibrinogen monoclonal antibody by measuring the O.D. at 405 nm in an ELISA-reader. Inhibition of fibrinogen-GpIIb/IIIa interaction results in a low O.D. An IC50 is calculated in relation to a concentration-effect curve.
The GpIIb/IIIa-Fibrinogen-ELISA is a modification of the assays described in the following literature:
Nachman, R. L. & Leung, L. L. K. (1982): Complex formation of platelet membrane glycoproteins IIb and IIIa with fibrinogen. J. Clin. Invest. 69:263-269. Wright, P. S. et al. (1993): An echistatin C-terminal peptide activated GpIIbIIIa binding to fibrinogen, fibronectin, vitronectin and collagen type I and type IV. Biochem. J. 293:263-276.

isolated activated GpIIb/IIIa receptor, sequence (P08514 32-887 limits assumed): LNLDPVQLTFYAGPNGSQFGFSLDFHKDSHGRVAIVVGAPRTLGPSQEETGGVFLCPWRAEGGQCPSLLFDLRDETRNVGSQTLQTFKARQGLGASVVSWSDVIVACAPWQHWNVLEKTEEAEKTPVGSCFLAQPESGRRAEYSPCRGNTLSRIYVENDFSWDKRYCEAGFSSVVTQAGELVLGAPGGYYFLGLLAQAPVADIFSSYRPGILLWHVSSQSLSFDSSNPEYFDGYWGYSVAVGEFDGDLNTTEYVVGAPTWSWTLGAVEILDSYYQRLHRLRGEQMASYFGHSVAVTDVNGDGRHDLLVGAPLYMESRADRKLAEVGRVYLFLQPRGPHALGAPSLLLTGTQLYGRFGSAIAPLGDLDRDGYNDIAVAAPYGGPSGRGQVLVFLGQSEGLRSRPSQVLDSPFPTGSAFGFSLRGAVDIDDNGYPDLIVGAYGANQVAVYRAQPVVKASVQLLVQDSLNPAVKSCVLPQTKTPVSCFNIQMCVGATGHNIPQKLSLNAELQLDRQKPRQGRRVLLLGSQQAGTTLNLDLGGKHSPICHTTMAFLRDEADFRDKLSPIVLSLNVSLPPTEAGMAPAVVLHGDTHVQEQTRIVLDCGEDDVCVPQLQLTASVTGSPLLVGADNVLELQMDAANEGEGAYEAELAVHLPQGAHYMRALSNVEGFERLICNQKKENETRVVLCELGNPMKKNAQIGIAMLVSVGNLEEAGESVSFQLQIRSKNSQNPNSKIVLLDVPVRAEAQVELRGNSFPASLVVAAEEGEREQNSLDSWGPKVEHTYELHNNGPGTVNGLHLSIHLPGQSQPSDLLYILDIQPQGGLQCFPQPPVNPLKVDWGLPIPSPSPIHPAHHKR
isolated activated GpIIb/IIIa receptor, sequence (P08514 891-1039 partner limits assumed): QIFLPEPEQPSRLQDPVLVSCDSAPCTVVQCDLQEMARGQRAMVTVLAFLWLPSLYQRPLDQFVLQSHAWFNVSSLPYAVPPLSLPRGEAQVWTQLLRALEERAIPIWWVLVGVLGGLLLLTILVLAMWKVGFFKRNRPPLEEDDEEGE
isolated activated GpIIb/IIIa receptor, sequence (P05106 27-788): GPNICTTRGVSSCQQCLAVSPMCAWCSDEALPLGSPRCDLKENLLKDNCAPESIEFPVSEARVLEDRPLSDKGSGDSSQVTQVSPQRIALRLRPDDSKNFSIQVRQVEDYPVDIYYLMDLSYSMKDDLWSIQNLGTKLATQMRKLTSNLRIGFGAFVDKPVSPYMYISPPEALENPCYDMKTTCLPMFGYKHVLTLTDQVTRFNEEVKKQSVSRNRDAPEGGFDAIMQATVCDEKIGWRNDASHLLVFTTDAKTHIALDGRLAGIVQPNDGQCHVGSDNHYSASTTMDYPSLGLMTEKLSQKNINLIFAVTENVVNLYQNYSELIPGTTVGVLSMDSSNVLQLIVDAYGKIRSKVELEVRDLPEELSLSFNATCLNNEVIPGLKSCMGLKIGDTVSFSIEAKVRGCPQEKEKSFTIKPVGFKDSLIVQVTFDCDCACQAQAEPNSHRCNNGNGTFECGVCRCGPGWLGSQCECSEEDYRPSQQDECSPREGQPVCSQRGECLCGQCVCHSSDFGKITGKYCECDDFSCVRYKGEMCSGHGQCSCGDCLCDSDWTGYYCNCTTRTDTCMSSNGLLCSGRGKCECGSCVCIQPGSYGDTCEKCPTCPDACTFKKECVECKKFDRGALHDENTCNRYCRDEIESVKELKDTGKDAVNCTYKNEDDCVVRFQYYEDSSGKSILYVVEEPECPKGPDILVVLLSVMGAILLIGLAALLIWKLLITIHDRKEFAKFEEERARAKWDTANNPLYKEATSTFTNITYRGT

Row | Compound | pIC50
1 | O=C(O)CC1CCC(CCN2CCN(c3ccncc3)CC2)CC1 (centres unmarked) [Example 4, {4-[2-(4-Pyridin-4-yl-piperazin-1-yl)-ethyl]-cyclohexyl} -acetic acid] | 7.00
2 | O=C(O)CC1(O)CCC(N2CCN(c3ccncc3)CC2)CC1 (stereo not drawn) [cis-1-hydroxy-4-[4-(4-pyridyl)-piperazin-1-yl] -acetic acid] | 5.60
